“Also recorded” adds a separate entry of the source.

Data set [1] can be described thus: S9 metabolism assay, murine liver S9 fractions. The class given is in vitro ADME, mouse. Particulars: 2 μM, 37° C., NADPH-regenerating system. How it is done: S9 Metabolism Assay: Male ICR/CD-1 mouse S9 fractions were purchased from Celsis/In Vitro Technologies (Baltimore, Md.). 50 μL (1 mg) of S9 protein was added to a 15 mL glass screw cap tube. 700 μL of a 50 mM Tris, pH 7.5 solution, containing the compound of interest was added on ice. The final concentration of compound after addition of all reagents was 2 μM. 250 μL of an NADPH-regenerating system (1.7 mg/mL NADP, 7.8 mg/mL glucose-6-phosphate, 6 U/mL glucose-6-phosphate dehydrogenase in 2% w/v NaHCO3/10 mM MgCl2) was added and the tube placed in a 37° C. shaking water bath. At varying time points after addition of phase I cofactors, the reaction was stopped by the addition of 1 mL of methanol containing an internal standard compound, n-benzylbenzamide, and formic acid. The samples were incubated 10 min at room temperature and then spun once at 975×g in the glass tube. The supernatant was spun a second time at 16,000×g for 5 min in a microcentrifuge. The supernatant was analyzed by LC-MS/MS. Analytical methods were developed for each compound using an AB SCIEX 3200-QTrap, a combination triple quadrupole/ion trap instrument. Compound transitions utilized for quantitation were as follows: IWP-L6 (27): 473.2 to 303.1; aniline: 171.2 to 127.0; n-benzylbenzamide (internal standard): 212.1 to 91.1. […]

Data set [2] can be described thus: Plasma metabolism assay, human plasma. The data set is classed as in vitro ADME. Particulars: over 24 h; 2 μM, 37° C. As to the method: (§1) Plasma Metabolism Assay: Murine, rat, and human plasma, collected using acidified citrate dextrose (ACD) anticoagulant, were purchased from Bioreclamation (Westbury, N.Y.). IWP-L6 (27) was added to 1 mL of each plasma at a final concentration of 2 μM, the material was aliquoted into eppendorf tubes, and then incubated for the indicated time points in a 37° C. water bath. At each time point, an aliquot was removed and protein precipitated and compound extracted and analyzed as described above.

A short description of data set [3]: Plasma metabolism assay, rat plasma. The data set is classed as in vitro ADME. How it is done:
as §1

The subject of data set [4] is phosphorylation of dishevelled 2 (Dv12) in HEK293 cells. Nature of the data set: Phosphorylation of dishevelled 2 in HEK293 cells (gel electrophoresis). The data set is classed as cell-based. The source says: FIG. 4—The Porcn inhibitor, IWP-L6 (FIG. 3 Compound 27), blocks the phosphorylation of the cytoplasmic Wnt pathway effector Dv12 shown through gel electrophoresis.
Among the five newly identified sub-nanomolar IWPs, compound 27 was selected for further biological evaluations and named IWP-L6. […] The in vivo stability of IWP-L6 (27) (FIG. 5) was further profiled. […] The major metabolites are the amide cleavage products. Similar species-dependent metabolitic profiles due to the involvement of carboxylesterase (CES) have been reported with other drug candidates (Eng, et al., 2010; Liu, et al., 2011) These observations are consistent with the elevated activity of CES in mouse and rat but not human (Berry, et al., 2009; Rudakova, et al., 2011; Bahar, et al., 2012).

Data set [5] concerns cell-autonomous Wnt signaling in mouse fibroblasts (L cells). As to the kind of experiment: Wnt signaling / Porcn-inhibiting activity, EC50 in mouse fibroblasts (L cells). The data set is classed as cell-based. The text has this: The four IWP lead compounds (1-4) were identified in the initial screen of 200,000 compounds (ChemDiv, ChemBridge, ComGenex, Prestwick and TimTek libraries) bear similar molecular skeletons (FIG. 1). […] The phthalazinone moiety of IWP-1 (1) and pyrimidinone moiety of IWP-2-4 (2-4) can be considered to be exchangeable scaffolding motifs for the compounds. The benzothiazole moiety appears to be a conserved motif and the phenyl group tolerates both electronic and steric perturbations.
While there is only 69% sequence identity between mouse Porcn and zebrafish Porcn, the in vitro EC50 values (FIG. 3) measured in mouse fibroblasts (L cells) correlate with the in vivo activity observed in fish but not linearly.

Data set [6] in a line: Plasma metabolism assay, murine plasma. The data set is classed as in vitro ADME, mouse. As to the method:
as §1

For data set [7], the system named is posterior axis formation (Wnt/β-catenin dependent developmental process). Nature of the data set: Zebrafish posterior axis formation assay. Particulars: zebrafish embryos, low micromolar concentrations, FIG. 7. The class given is in vivo. As to the method: Zebrafish embryos harboring a mCherry-based reporter of Wnt/β-catenin signaling (Moro, et al., 2012) were treated with increasing concentrations of IWP-L6 (FIG. 3 Compound 27) in the aquarium water. Fluorescence intensity of animals was quantified as before (Dodge et al., 2012). (FIG. 7B) Activity of the IWP compounds IWP-L6 (Compound 27), 30, 32, and 35 was measured using the posterior axis formation assay.

Data set [8] deals with Wnt mediated branching morphogenesis in cultured embryonic kidneys. Nature of the data set: Branching morphogenesis in cultured mouse embryonic kidneys. The class given is cell-based. As to the method: FIGS. 8A-B—(FIG. 8A) IWP-L6 (Compound 27) inhibits Wnt mediated branching morphogenesis in cultured embryonic kidneys. Hoxb7Cre; RosaTomato kidneys were dissected from E11.5 embryos and cultured at the air/media interface (Dodge, et al., 2012; Kamer, et al., 2010) Media was replaced every 24 hours. Images were captured every 24 hours using a Zeiss Lumar V12 fluorescent stereoscope. Magnitude: 80× at 0 hours and 24 hours; 60× at 48 hours. (FIG. 8B) The fold increase in the number of ureteric bud tips between time=0 and 48 hours for each treatment was quantified. Statistics were performed using Student T-test.
IWP2 (2) has been previously shown to specifically and reversibly block Wnt signaling and Wnt mediated branching morphogenesis in cultured mouse embryonic kidneys (Kamer, et al., 2010; Dodge, et al., 2012, which are incorporated by reference herein). […] Embryonic day (E) 11.5 kidneys in media containing various doses (1 nM to 1 μM) of IWP-L6 (27) were cultured. […] In comparison, a dose of 5 μM of IWP-2 (2) was required to obtain similar results (Dodge, et al., 2012; Karner, et al., 2010).

Another data set can be described thus: Relative solubility. The data set is classed as physicochemical.
Data set [9] concerns regeneration of the tailfin (Wnt-dependent process). Nature of the data set: Zebrafish tailfin regeneration. The class given is in vivo. The source says:
Achieving transient repression of pathological Wnt response without incurring permanent damage to normal stem cell function is a key anticancer therapeutic goal.

The test system is the same in data set [10]. Conditions: adult and juvenile fish, previously shown; cited from earlier work.
Data set [11] has as its system Wnt mediated branching morphogenesis in cultured embryonic kidneys. Particulars: cultured mouse embryonic kidneys; cited from earlier work.

For `O=C(CSc1nc2c(c(=O)n1-c1ccccc1)SCC2)Nc1ccc(-c2ccccc2)cn1` [IWP-L6], in data set [1], the “t1/2 in murine liver S9 fractions” value came to 26 min. Besides, in data set [2], the “stability in human plasma” value was “stable; also recorded: little degradation”. Further, the “t1/2 in rat plasma” value in data set [3] (2 μM, 37° C.) is recorded as 190 min. Further, in [3] (as a function of time, FIG. 5), the “degradation in rat plasma (in words)” value is recorded as “much more significant degradation”. Besides, the “suppression of phosphorylation of dishevelled 2 (Dv12)” value in [4] was “effectively suppressed; also recorded: blocks”. In addition, the “EC50 (in words)” value in data set [5] is given as “sub-nanomolar”. In data set [5] (general structure C, FIG. 3 series), the “Porcn-inhibiting activity (in words)” value is reported as “slight improvement of activity”. Further, the “t1/2 in murine plasma” value in data set [6] (2 μM, 37° C.) is given as 2 min. For the same compound, the “degradation in mouse plasma (in words)” value in [6] (as a function of time, FIG. 5) is given as “much more significant degradation”. Moreover, the “inhibition of posterior axis formation” value in data set [7] is “effectively inhibit; also recorded: inhibits”. Moreover, in [8] (E11.5 kidneys), the “dose that completely blocked branching morphogenesis” value is recorded as at least 50 nM. Moreover, the “dose that significantly reduced branching morphogenesis” value in [8] (E11.5 kidneys, relative to DMSO treated controls) is reported as at least 10 nM. Moreover, the “inhibition of Wnt mediated branching morphogenesis (in words)” value in [8] (FIG. 8A) was “inhibits”. The “potency relative to IWP-2 (2)” value in data set [8] (cultured E11.5 mouse kidneys) is recorded as “at least 100 times”. In addition, in the data set “Relative solubility”, the “solubility relative to IWP-2 (2) and 20” value is recorded as “more soluble”. The “fin regeneration after chemical removal” value in [9] (resected caudal fins, 7 d in water containing compound, then removal) was “nearly normal levels”. Moreover, the “inhibition of tailfin regeneration (comparison in words)” value in data set [9] (zebrafish, FIG. 6) is given as “more potent activity; also recorded: more significant”.

As for `O=C(Nc1cccc2cccnc12)c1ccc(N2C(=O)[C@@H]3[C@H](C2=O)[C@@H]2C=C[C@H]3C2)cc1` [IWR-1], the “block of tailfin regeneration” value in data set [10] was “effectively block”.

Regarding `Cc1ccc2nc(NC(=O)CSc3nc4c(c(=O)n3C)SC(C)C4)sc2c1` (centres unmarked) [IWP-12], the “block of tailfin regeneration” value in [10] was “effectively block”.

Turning to `Cc1ccc2nc(NC(=O)CSc3nc4c(c(=O)n3-c3ccccc3)SCC4)sc2c1` [IWP-2], in data set [11], the “dose required to obtain similar results (block of branching morphogenesis)” value was 5 µM.

The values are drawn from patent US9783550B2, “Highly potent inhibitors of porcupine” (The Board of Regents of the University of Texas System, priority 2013, dated 2017).
